# “And” between values parts separate entries of the source, which are not always exact repeats. Equal entries are not always repeated. “Also recorded” adds a separate entry of the source.
# Assays:
# CD4^+/CD25^high Treg = assay: Depletion of regulatory T cells in vivo (FACS of patient PBMC); design: species or system human; conditions: for Treg Depletion (%): single i.v. dose 18 μg/kg
# Experimental: Four-color FACS analyses were performed using a Becton Dickinson FACSCalibur™. Fluorochrome-conjugated antibodies including anti-CD4 FITC, anti-CD45RO, anti-CD45RA (Caltag, Burlingame, Calif.); anti-CD25 PE (Becton Dickinson, California, CA) as well as isotypic control antibodies (Caltag, Burlingame, Calif.) were used for T-cell staining. Expression of GITR was analyzed by staining T cells with anti-GITR antibody (R&D Systems, Minneapolis, Minn.) followed by secondary goat anti-mouse antibody conjugated to APC. For determination of intracellular CTLA-4 expression, T cells were permeabilized with 0.5% saponin, fixed with 4% paraformaldehyde and then stained with biotinylated anti-CD152 (Becton Dickinson, California, CA) followed by APC-strepavidin (Becton Dickinson, California, CA). A total of 1×10^6 cells were suspended in staining buffer (PBS with 1% FCS, 2 mM EDTA, and 0.1% sodium azide) and incubated for 20 minutes at 4° C. with the antibody. Data were analyzed and presented using CELLQuest™ software. Sorting of CD4^+CD25^neg, CD4^+CD25^int and CD4^+CD25^high T cells was performed with a BD FACSAria™ cell sorter after antibody labeling. For detection of cytokine secretion, isolated CD4^+ T cells were activated for 16 hours in the presence of autologous mRNA-transfected DC. Cytokine secretion was measured using c Th1/Th2 cytokine cytometric bead arrays according to the manufacturer's protocol (BD Biosciences Pharmingen, San Diego, Calif.).
# Using these methods, the degree of regulatory T cell depletion efficacy in the four subjects treated on the clinical protocol was determined.
# Four-color FACS analyses were performed using the following antibodies: anti-CD4 FITC, anti-CD45RO, anti-CD45RA (Caltag), anti-CD25 PE (Becton Dickinson), anti-GITR (R&D Systems), and isotypic controls (Caltag). Sorting of CD4^+/CD25^neg, CD4^+/CD25^int and CD4^+/CD25^high T cells was performed using a Becton Dickinson FACSAria™ cell sorter after antibody labeling. For intracellular detection of FoxP3, cells were permeabilized with 30 μg/ml digitonin for 45 minutes at 4° C. Subsequently, cells were stained with anti-FoxP3 antibody (Abcam), and R-PE anti-goat IgG in the presence of 10 μg/ml digitonin for 30 minutes at 4° C. Following staining, cells were fixed and analyzed by FACS. For intracellular CTLA-4 detection, T cells were permeabilized, fixed, and stained with biotinylated anti-CD152 (Becton Dickinson) followed by APC-streptavidin (Becton Dickinson). A total of 1×10^6 cells was suspended in staining buffer (PBS with 1% FCS, 2 mM EDTA, and 0.1% sodium azide) and incubated for 20 minutes at 4° C. with the antibody.
# tumor-specific T cells = assay: Interferon-γ ELISPOT of vaccine-induced tumor-specific T cells in patients; assay type: in vivo, human
# Experimental: PBMC were cultured overnight in RPMI 1640 medium supplemented with 10% FCS. […] After washing, spots were counted using an automated Zeiss KS Elispot Compact reader (Carl Zeiss Inc., Minneapolis, Minn.).
# In order to determine whether DAB389IL-2-mediated regulatory T cell depletion is capable of augmenting vaccine-induced CTL responses in vivo, Interferon-γ ELISPOT analysis was used to determine the frequencies of vaccine-induced, tumor-specific T cells from PBMC samples collected prior to (white bars) and two weeks after (grey bars) the third vaccination (study week 8). Purified CD8^+ T cells were isolated from pre- and post-vaccination PBMCs and were cultured overnight with tumor RNA transfected DC targets. As controls, PBMC RNA or benign renal epithelium (RE)-derived RNA-transfected DCs were used for short-term antigenic stimulation. Visible spots were then counted using an automated ELISPOT reader. […] In contrast, a significant increase of tumor-specific T cells was consistently observed in the treated subjects after vaccination. […]
# Pre- and post-treatment T-cell analysis was performed by Interferon-γ ELISPOT on all patients who completed immunotherapy. Increases of antigen-specific CD4^+ and CD8^+ T cells after vaccination were compared using the Wilcoxon matched-pairs signed rank test, analyzing the null hypothesis that the rates of change in T-cell response were equivalent prior to and after therapy. A two-sided p-value of <0.05 was considered statistically significant.
# In order to determine whether DAB389IL-2-mediated Treg depletion is capable of augmenting vaccine-induced CD8^+ and CD4^+ T-cell responses in cancer patients, Interferon-γ ELISPOT analyses were performed to determine the frequencies of vaccine-induced, tumor-specific T cells from PBMC samples collected before and two weeks after the third vaccination. CD8^+ and CD4^+ T cells were isolated from pre- and post-vaccination PBMC and cultured overnight with tumor RNA-transfected DC targets. As controls, autologous PBMC RNA or autologous benign renal epithelium (RE)-derived RNA-transfected DC were used for short-term antigenic stimulation. As exemplified by the 3 study subjects shown in FIG. 10A, only background levels of PBMC-specific T cells were observed before (white bars) or after vaccination (grey bars).
# [1] = system: renal tumor-specific CD4^+ T cells; assay: Cytokine profile of vaccine-induced CD4+ T cells (ELISPOT, Th1/Th2 bead array); assay type: in vivo, human
# [2] = system: CD4^+CD25^int memory T-cell pool; conditions: after DAB389IL-2 administration; fluM1, CMV, tetanus toxoid
# [3] = system: responder cells (PBMC) in MLR; assay: Allogeneic DC-stimulated mixed lymphocyte reaction (MLR) proliferation; assay type: cell-based, human
# [4] = 6 RCC patients, DAB389IL-2 plus RCC RNA-transfected DC
# [5] = per patient, DAB389IL-2 4 days prior to tumor RNA-transfected DC vaccination
substance,measurement,setting,value
denileukin diftitox [DAB389IL-2],Treg Depletion (%),"CD4^+/CD25^high Treg; Example 1, per patient, four days after treatment",74% and 88% and 37% and 77%
same,Treg Depletion (%),"CD4^+/CD25^high Treg; Example 1, per patient, four days after treatment, listed as DAB 389 IL-2",74% and 88% and 37% and 77%
same,Treg Depletion (%),"CD4^+/CD25^high Treg; Example 2, per patient, 4 days after infusion",74% and 72% and 68% and 76% and 57% and 26% and 35%
same,effect on CD25^neg/int subsets,CD4^+/CD25^high Treg; total CD25^pos cells after DAB389IL-2,CD25^neg/int subsets were unaffected
same,Treg restored in the peripheral T-cell pool,CD4^+/CD25^high Treg; within two months,approximately 75%
same,median increase in tumor-specific CD4^+ T cells,tumor-specific T cells; [4],7.2 fold
same,median increase in tumor-specific CD8^+ T cells,tumor-specific T cells; [4],7.9 fold
same,tumor-specific T-cell response after DAB389IL-2 alone,"tumor-specific T cells; DAB389IL-2 only, no vaccine",did not increase a tumor-specific CTL response in vivo; also recorded: did not significantly increase
same,tumor-specific (CD8^+) T cells vs vaccination alone,tumor-specific T cells; DAB389IL-2 plus vaccination compared with vaccine alone,significantly higher numbers of tumor-specific CD8^+ T cells
same,increase in tumor-specific CTL frequencies,"tumor-specific T cells; Example 2, subjects receiving combined treatment",up to 16 fold
same,CD4^+ T-cell responses vs vaccination alone,"tumor-specific T cells; combined therapy, RCC patients, p=0.055",trend towards improved CD4^+ T-cell responses
same,ELISPOT (Fold increase after vaccination) CD4^+,tumor-specific T cells; [5],7.6 fold and 6.3 fold and 2.2 fold and 9.7 fold and 31.0 fold and 6.8 fold and 4.5 fold
same,ELISPOT (Fold increase after vaccination) CD8^+,tumor-specific T cells; [5],16.0 fold and 12.5 fold and 5.4 fold and 7.4 fold and 7.8 fold (2×) and 8.0 fold
same,longitudinal vaccine-induced CD8^+ T-cell response,tumor-specific T cells; subject 02-DAB vs 11-RCC,significantly enhanced and also prolonged CD8^+ T-cell response
same,Th1/Th2 cytokine secretion by vaccine-induced T cells (bead array),[1]; 18 hours stimulation with RCC RNA-transfected DC,"secretion of Th-1 type cytokines (IL-2, Interferon-γ, or TNF-α), but not Th-2 type cytokines"
same,Interferon-γ / IL-4 secreting renal tumor-specific CD4 T cells (ELISPOT),"[1]; one subject, DAB389IL-2 followed by vaccination","stimulation of Interferon-γ, but not IL-4-secreting renal tumor-specific CD4 T cells"
same,antigen-specific proliferative reactivities against recall antigens,[2],unchanged reactivities
same,proliferation of responder cells,[3]; DAB389IL-2 added two days after initiation of the MLR,completely abrogated the proliferation of responder cells
same,inhibitory effect of Treg added to MLR,[3]; pre-incubation of Treg with DAB389IL-2 5 nM,significantly abrogated their inhibitory effect

# — patent publication US20060002932A1, “Methods and compositions for enhancement of immunity by in vivo depletion of immunosuppressive cell activity” (priority 2004, published 2006)
